{"source": "ChEMBL document CHEMBL4321870", "about": "“Benzophenone Compounds, from a Marine-Derived Strain of the Fungus Pestalotiopsis neglecta, Inhibit Proliferation of Pancreatic Cancer Cells by Targeting the MEK/ERK Pathway” (J Nat Prod, 2019)", "key": {"PANC-1 [1]": {"test_system": "PANC-1", "assay": "Antiproliferative activity against human PANC1 cells incubated for 72 hrs by MTT assay", "assay_type": "functional, cell-based", "settings": "PANC-1, 72 h"}, "[2]": {"biological_target": "T1, Dual specificity mitogen-activated protein kinase kinase; MEK1/2 (Homo sapiens) (UniProt P36507+Q02750)", "T1 sequence (P36507 whole entry, looked up)": "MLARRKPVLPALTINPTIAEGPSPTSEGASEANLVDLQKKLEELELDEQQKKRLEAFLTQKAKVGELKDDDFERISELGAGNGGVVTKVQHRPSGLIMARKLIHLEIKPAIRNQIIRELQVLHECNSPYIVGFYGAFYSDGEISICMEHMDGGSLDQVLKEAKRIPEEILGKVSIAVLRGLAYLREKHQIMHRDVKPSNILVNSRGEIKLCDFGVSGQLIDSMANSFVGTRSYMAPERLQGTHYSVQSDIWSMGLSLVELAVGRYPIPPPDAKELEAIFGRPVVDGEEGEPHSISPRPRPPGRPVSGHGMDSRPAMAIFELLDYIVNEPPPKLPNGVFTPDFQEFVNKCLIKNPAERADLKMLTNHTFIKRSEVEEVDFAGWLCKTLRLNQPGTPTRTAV", "T1 sequence (Q02750 whole entry, looked up)": "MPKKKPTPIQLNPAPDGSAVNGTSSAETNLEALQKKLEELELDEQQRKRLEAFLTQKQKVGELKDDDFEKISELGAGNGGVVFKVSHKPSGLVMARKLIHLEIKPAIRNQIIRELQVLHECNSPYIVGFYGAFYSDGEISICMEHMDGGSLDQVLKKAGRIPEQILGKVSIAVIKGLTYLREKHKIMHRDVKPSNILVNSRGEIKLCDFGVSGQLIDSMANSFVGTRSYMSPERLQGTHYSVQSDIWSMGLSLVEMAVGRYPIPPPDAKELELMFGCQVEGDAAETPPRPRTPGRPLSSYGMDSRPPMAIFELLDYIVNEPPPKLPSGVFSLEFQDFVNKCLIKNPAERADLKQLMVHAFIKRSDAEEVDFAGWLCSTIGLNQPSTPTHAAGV", "settings": "10 uM", "description": "Inhibition of MEK1/2 in human PANC1 cells assessed as decrease in phosphorylated levels of MEK at S217/221 at 10 uM incubated for 24 hrs by Western blotting analysis"}, "[3]": {"biological_target": "T1, Dual specificity mitogen-activated protein kinase kinase; MEK1/2 (Homo sapiens)", "assay": "Inhibition of MEK1/2 in human PANC1 cells assessed as decrease in phosphorylated levels of ERK(T202/Y204) in nuclear fraction at 5 uM incubated for 24 hrs by Western blotting analysis", "assay_type": "cell-based"}, "PANC-1 [4]": {"test_system": "PANC-1", "assay": "Inhibition of colony formation in human PANC1 cells incubated for 14 days by crystal violet staining based assay", "assay_type": "functional, cell-based"}, "[5]": {"biological_target": "T1, Dual specificity mitogen-activated protein kinase kinase; MEK1/2 (Homo sapiens)", "assay": "Inhibition of MEK1/2 in human PANC1 cells assessed as decrease in phosphorylated levels of MEK at S217/221 at 5 uM incubated for 24 hrs by Western blotting analysis", "assay_type": "cell-based"}, "PANC-1 [6]": {"test_system": "PANC-1", "assay": "Induction of apoptosis in human PANC1 cells assessed as increase in cleaved PARP level incubated for 24 hrs by Western blot analysis", "assay_type": "functional, cell-based"}, "PANC-1 [7]": {"test_system": "PANC-1", "assay": "Induction of apoptosis in human PANC1 cells assessed as increase in cleaved caspase-3 level incubated for 24 hrs by Western blot analysis", "assay_type": "functional, cell-based"}, "[8]": {"biological_target": "T1, Dual specificity mitogen-activated protein kinase kinase; MEK1/2 (Homo sapiens)", "assay": "Inhibition of MEK1/2 in human PANC1 cells assessed as decrease in phosphorylated levels of ERK(T202/Y204) at 5 uM incubated for 24 hrs by Western blotting analysis", "assay_type": "cell-based"}, "HepG2": {"test_system": "HepG2", "assay": "Antiproliferative activity against human HepG2 cells incubated for 72 hrs by MTT assay", "assay_type": "functional, cell-based", "settings": "HepG2, 72 h"}, "[9]": {"assay": "Antiproliferative activity against human MCF cells incubated for 72 hrs by MTT assay", "assay_type": "functional, cell-based"}, "DU-145": {"test_system": "DU-145", "assay": "Antiproliferative activity against human DU145 cells incubated for 72 hrs by MTT assay", "assay_type": "functional, cell-based", "settings": "DU-145, 72 h"}, "HCT-116": {"test_system": "HCT-116", "assay": "Antiproliferative activity against human HCT116 cells incubated for 72 hrs by MTT assay", "assay_type": "functional, cell-based", "settings": "HCT-116, 72 h"}, "A549": {"test_system": "A549", "assay": "Antiproliferative activity against human A549 cells incubated for 72 hrs by MTT assay", "assay_type": "functional, cell-based", "settings": "A549, 72 h"}}, "note": "The source made the active and inactive calls. No cut-off for these calls is given here."}
{"smiles": "COc1c(Cl)c(C)c(Cl)c(O)c1C(=O)c1c(C=O)c(O)cc(O)c1CC=C(C)C", "note": "[PESTALONE]", "values": [{"measurement": "IC50", "setting": "PANC-1 [1]", "result": 14, "unit": "µM"}]}
{"smiles": "CC(C)=CCc1c(O)cc(O)c2c1C(=O)c1c(O)c(Cl)c(C)c(Cl)c1OC2", "note": "[PESTALACHLORIDE B]", "values": [{"measurement": "IC50", "setting": "PANC-1 [1]", "result": "> 50", "unit": "µM"}]}
{"smiles": "COc1cccc(-c2cc(=O)c3ccccc3o2)c1N", "values": [{"measurement": "inhibition", "setting": "[2]", "result": "Active"}]}
{"smiles": "COc1cc(C)c(Br)c(O)c1C(=O)c1c(C=O)c(O)cc(O)c1CC=C(C)C", "values": [{"measurement": "IC50", "setting": "PANC-1 [1]", "result": 26, "unit": "µM"}]}
{"smiles": "CC(C)=CCc1c(O)cc(O)c(C=O)c1C(=O)c1c(O)cc(C)c(Br)c1O", "values": [{"measurement": "inhibition", "setting": "[3]", "result": "Active"}, {"measurement": "inhibition", "setting": "PANC-1 [4]", "result": "Dose-dependent effect"}, {"measurement": "inhibition", "setting": "[5]", "result": "Active"}, {"measurement": "Activity", "setting": "PANC-1 [6]", "result": "Dose-dependent effect"}, {"measurement": "Activity", "setting": "PANC-1 [7]", "result": "Dose-dependent effect"}, {"measurement": "IC50", "setting": "PANC-1 [1]", "result": 7.6, "unit": "µM"}, {"measurement": "inhibition", "setting": "[8]", "result": "Active"}]}
{"smiles": "O=c1[nH]cc(F)c(=O)[nH]1", "note": "[FLUOROURACIL]", "values": [{"measurement": "IC50", "setting": "HepG2", "result": 2.5, "unit": "µM"}, {"measurement": "IC50", "setting": "[9]", "result": 11, "unit": "µM"}, {"measurement": "IC50", "setting": "DU-145", "result": 2.5, "unit": "µM"}, {"measurement": "IC50", "setting": "PANC-1 [1]", "result": 15, "unit": "µM"}]}
{"smiles": "CC(C)=CCc1c(O)cc(O)c(C=O)c1C(=O)c1c(O)cc(C)c(Cl)c1O", "values": [{"measurement": "inhibition", "setting": "[3]", "result": "Active"}, {"measurement": "IC50", "setting": "HepG2", "result": 23, "unit": "µM"}, {"measurement": "inhibition", "setting": "PANC-1 [4]", "result": "Dose-dependent effect"}, {"measurement": "IC50", "setting": "[9]", "result": 7.5, "unit": "µM"}, {"measurement": "inhibition", "setting": "[5]", "result": "Active"}, {"measurement": "IC50", "setting": "DU-145", "result": 14, "unit": "µM"}, {"measurement": "Activity", "setting": "PANC-1 [6]", "result": "Dose-dependent effect"}, {"measurement": "Activity", "setting": "PANC-1 [7]", "result": "Dose-dependent effect"}, {"measurement": "IC50", "setting": "PANC-1 [1]", "result": 7.2, "unit": "µM"}, {"measurement": "IC50", "setting": "HCT-116", "result": 5.5, "unit": "µM"}, {"measurement": "inhibition", "setting": "[8]", "result": "Active"}, {"measurement": "IC50", "setting": "A549", "result": 7.8, "unit": "µM"}]}
{"smiles": "COc1cc(C)c(Cl)c(O)c1C(=O)c1c(C=O)c(O)cc(O)c1CC=C(C)C", "values": [{"measurement": "IC50", "setting": "HepG2", "result": 37, "unit": "µM"}, {"measurement": "IC50", "setting": "[9]", "result": 11, "unit": "µM"}, {"measurement": "IC50", "setting": "DU-145", "result": 21, "unit": "µM"}, {"measurement": "IC50", "setting": "PANC-1 [1]", "result": 14, "unit": "µM"}, {"measurement": "IC50", "setting": "HCT-116", "result": 10, "unit": "µM"}, {"measurement": "IC50", "setting": "A549", "result": 14, "unit": "µM"}]}
